Results published in US8871738B2, “Fused bicyclic oxazolidinone CETP inhibitor” (Merck Sharp & Dohme Corp., priority 2011, dated 2014).

These compounds were tested against endogenous CETP from serum (Homo sapiens (Human), UniProt P11597) (assay: RTA assay in 95% human serum (CETP-catalyzed CE and TG transfer, endogenous CETP)). Conditions: RTA assay in 95% human serum; read-out: IC50.
Assay type: biochemical

endogenous CETP from serum, sequence (P11597 18-493 limits assumed): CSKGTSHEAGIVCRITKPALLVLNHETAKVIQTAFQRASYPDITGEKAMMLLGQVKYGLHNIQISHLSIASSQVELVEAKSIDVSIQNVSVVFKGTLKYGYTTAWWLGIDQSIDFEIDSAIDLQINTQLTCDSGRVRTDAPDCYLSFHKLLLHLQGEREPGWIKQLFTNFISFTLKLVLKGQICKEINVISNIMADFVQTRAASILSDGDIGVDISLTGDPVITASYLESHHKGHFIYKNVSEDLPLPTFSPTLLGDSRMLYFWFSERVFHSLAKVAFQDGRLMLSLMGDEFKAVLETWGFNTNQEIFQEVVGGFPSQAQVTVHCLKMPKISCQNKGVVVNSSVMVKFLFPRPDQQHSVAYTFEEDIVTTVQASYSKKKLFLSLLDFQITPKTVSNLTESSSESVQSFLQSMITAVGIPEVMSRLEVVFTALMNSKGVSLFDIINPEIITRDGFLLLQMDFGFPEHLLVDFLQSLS

Row | SMILES | IC50
1 | O=C1O[C@H](c2cc(C(F)(F)F)cc(C(F)(F)F)c2)[C@@H]2CC[C@@H](c3cc(C(F)(F)F)ccc3-c3ccccc3Cl)N12 [Example 15, (1R,5S,7aS)-1-[3,5-bis(trifluoromethyl)phenyl]-5-[2′-chloro-4-(trifluoromethyl)biphenyl-2-yl]tetrahydro-1H-pyrrolo[1,2-c][1,3]oxazol-3-one] | 453 nM
2 | Cc1cocc1-c1ccc(C(F)(F)F)cc1[C@@H]1CC[C@H]2[C@@H](c3cc(C(F)(F)F)cc(C(F)(F)F)c3)OC(=O)N12 [Example 16, (1R,5S,7aS)-1-[3,5-bis(trifluoromethyl)phenyl]-5-[2-(4-methylfuran-3-yl)-5-(trifluoromethyl)phenyl]tetrahydro-1H-pyrrolo[1,2-c][1,3]oxazol-3-one] | 343 nM
3 | O=C1O[C@H](c2cc(C(F)(F)F)cc(C(F)(F)F)c2)[C@@H]2CC[C@@H](c3cc(C(F)(F)F)ccc3C3=CCCCC3)N12 [Example 17, (1R,5S,7aS)-1-[3,5-bis(trifluoromethyl)phenyl]-5-[2-cyclohex-1-en-1-yl-5-(trifluoromethyl)phenyl]tetrahydro-1H-pyrrolo[1,2-c][1,3]oxazol-3-one] | 73.6 nM
4 | O=C1O[C@H](c2cc(C(F)(F)F)cc(C(F)(F)F)c2)[C@@H]2CC[C@@H](c3cc(C(F)(F)F)ccc3-c3ccsc3)N12 [Example 18, (1R,5S,7aS)-1-[3,5-bis(trifluoromethyl)phenyl]-5-[2-thiophen-3-yl-5-(trifluoromethyl)phenyl]tetrahydro-1H-pyrrolo[1,2-c][1,3]oxazol-3-one] | 103 nM
5 | COc1ccc(F)cc1-c1ccc(C(F)(F)F)cc1[C@@H]1CC[C@H]2[C@@H](c3cc(C(F)(F)F)cc(C(F)(F)F)c3)OC(=O)N12 [Example 19, (1R,5S,7aS)-1-[3,5-bis(trifluoromethyl)phenyl]-5-[5′-fluoro-2′-methoxy-4-(trifluoromethyl)biphenyl-2-yl]tetrahydro-1H-pyrrolo[1,2-c][1,3]oxazol-3-one] | 166 nM
6 | COc1ncccc1-c1ccc(C(F)(F)F)cc1[C@@H]1CC[C@H]2[C@@H](c3cc(C(F)(F)F)cc(C(F)(F)F)c3)OC(=O)N12 [Example 21, (1R,5S,7aS)-1-[3,5-bis(trifluoromethyl)phenyl]-5-[2-(2-methoxypyridin-3-yl)-5-(trifluoromethyl)phenyl]tetrahydro-1H-pyrrolo[1,2-c][1,3]oxazol-3-one] | 316 nM
7 | O=C1O[C@H](c2cc(C(F)(F)F)cc(C(F)(F)F)c2)[C@@H]2CC[C@@H](c3cc(C(F)(F)F)ccc3C3=CCCC3)N12 [Example 22, (1R,5S,7aS)-1-[3,5-bis(trifluoromethyl)phenyl]-5-[2-cyclopent-1-en-1-yl-5-(trifluoromethyl)phenyl]tetrahydro-1H-pyrrolo[1,2-c][1,3]oxazol-3-one] | 56.6 nM
8 | O=C1O[C@H](c2cc(C(F)(F)F)cc(C(F)(F)F)c2)[C@@H]2CC[C@@H](c3cc(C(F)(F)F)ccc3-c3cc(Cl)ccc3F)N12 [Example 23, (1R,5S,7aS)-1-[3,5-bis(trifluoromethyl)phenyl]-5-[5′-chloro-2′-fluoro-4-(trifluoromethyl)biphenyl-2-yl]tetrahydro-1H-pyrrolo[1,2-c][1,3]oxazol-3-one] | 188 nM
9 | Cc1cscc1-c1ccc(C(F)(F)F)cc1[C@@H]1CC[C@H]2[C@@H](c3cc(C(F)(F)F)cc(C(F)(F)F)c3)OC(=O)N12 [Example 24, (1R,5S,7aS)-1-[3,5-bis(trifluoromethyl)phenyl]-5-[2-(4-methylthiophen-3-yl)-5-(trifluoromethyl)phenyl]tetrahydro-1H-pyrrolo[1,2-c][1,3]oxazol-3-one] | 122 nM
10 | O=C1O[C@H](c2cc(C(F)(F)F)cc(C(F)(F)F)c2)[C@@H]2CC[C@@H](c3cc(C(F)(F)F)ccc3-c3cc(F)ccc3F)N12 [Example 25, (1R,5S,7aS)-1-[3,5-bis(trifluoromethyl)phenyl]-5-[2′,5′-difluoro-4-(trifluoromethyl)biphenyl-2-yl]tetrahydro-1H-pyrrolo[1,2-c][1,3]oxazol-3-one] | 104 nM
11 | Cc1ccc(Cl)cc1-c1ccc(C(F)(F)F)cc1[C@@H]1CC[C@H]2[C@@H](c3cc(C(F)(F)F)cc(C(F)(F)F)c3)OC(=O)N12 [Example 26, (1R,5S,7aS)-1-[3,5-bis(trifluoromethyl)phenyl]-5-[5′-chloro-2′-methyl-4-(trifluoromethyl)biphenyl-2-yl]tetrahydro-1H-pyrrolo[1,2-c][1,3]oxazol-3-one] | 1220 nM
12 | COc1cc(F)c(-c2ccc(C(=O)O)cc2C)cc1-c1ccc(C(F)(F)F)cc1[C@@H]1CC[C@H]2[C@@H](c3cc(C)cc(C(F)(F)F)c3)OC(=O)N12 [Example 29, 6′-fluoro-4′-methoxy-2-methyl-2″- {(1R,5S,7aS)-1-[3-methyl-5-(trifluoromethyl)phenyl]-3-oxotetrahydro-1H-pyrrolo[1,2-c][1,3]oxazol-5-yl}-4″- (trifluoromethyl)-1,1′:3′,1″- terphenyl-4-carboxylic acid] | 44.6 nM
13 | COc1ccc(-c2ccc(C(=O)O)cc2C)cc1-c1ccc(F)cc1[C@@H]1CC[C@H]2[C@@H](c3cc(C(F)(F)F)cc(C(F)(F)F)c3)OC(=O)N12 [Example 34, 2″-{(1R,5S,7aS)-1-[3,5-bis(trifluoromethyl)phenyl]-3-oxotetrahydro-1H-pyrrolo[1,2-c][1,3]oxazol-5-yl}-4″-fluoro-4′-methoxy-2-methyl-1,1′:3′,1″- terphenyl-4-carboxylic acid] | 229 nM
14 | COc1ccc(-c2cnc(C(=O)O)cc2C)cc1-c1ccc(F)cc1[C@@H]1CC[C@H]2[C@@H](c3cc(C(F)(F)F)cc(C(F)(F)F)c3)OC(=O)N12 [Example 38, 5-(2′-{(1R,5S,7aS)-1-[3,5-bis(trifluoromethyl)phenyl}-3-oxotetrahydro-1H-pyrrolo[1,2-c][1,3]oxazol-5-yl}-4′-fluoro-6-methxoybiphenyl-3-yl)-4-methylpyridine-2-carboxylic acid] | 1740 nM
15 | COc1cc(F)c(C(C)C)cc1-c1ccc(C(F)(F)F)cc1[C@@H]1CCC[C@H]2[C@@H](c3cc(C(F)(F)F)cc(C(F)(F)F)c3)OC(=O)N12 [Example 43, (1R,5S,8aS)-1-[3,5-bis(trifluoromethyl)phenyl]-5-[4′-fluoro-2′-methoxy-5′-(1-methylethyl)-4-(trifluoromethyl)biphenyl-2-yl]hexahydro[1,3]oxazolo[3,4-a]pyridin-3-one] | 1210 nM
16 | COc1cc(F)c(-c2ccc(C(=O)O)cc2C)cc1-c1ccc(C(F)(F)F)cc1[C@@H]1CCC[C@H]2[C@@H](c3cc(C(F)(F)F)cc(C(F)(F)F)c3)OC(=O)N12 [Example 44, 2″-{(1R,5S,8aS)-1-[3,5-bis(trifluoromethyl)phenyl]-3-oxohexahydro[1,3]oxazolo[3,4-a]pyridin-5-yl}-6′-fluoro-4′-methoxy-2-methyl-4″- (trifluoromethyl)-1,1′:3′,1″- terphenyl-4-carboxylic acid] | 718 nM
17 | COc1ncc(C(C)C)cc1-c1ccc(C(F)(F)F)cc1[C@@H]1CC[C@H]2[C@@H](c3cc(C(F)(F)F)cc(C(F)(F)F)c3)OC(=O)N12 [Example 45, (1R,5S,7aS)-1-[3,5-bis(trifluoromethyl)phenyl]-5-{2-[2-methoxy-5-(1-methylethyl)pyridin-3-yl]-5-(trifluoromethyl)phenyl}tetrahydro-1H-pyrrolo[1,2-c][1,3]oxazol-3-one] | 44.7 nM
